The nature of the assay: Predicted binding affinity for beta secretase by linear interaction energy continuum electrostatics.

pKi: −log10 of the molar value.

Broadly, the pKi is the negative decadic logarithm of the Ki, by convention in mol/L. Take `COCCCNC(=O)c1cc(NC(=O)Nc2cc(C(F)(F)F)cc(C(F)(F)F)c2)ccc1N(C)C` [5-[3-(3,5-Bis-trifluoromethyl-phenyl)-ureido]-2-dimethylamino-N-(3-methoxy-propyl)-benzamide]: the negative logarithm of the Ki (pKi) was 5.03.

Values taken from BindingDB's records for doi:10.1021/jm050499d (University of Zürich, 2005).
